# Experiments:
# [1] = tested on: lettuce; assay: IAA sensitivity test on lettuce; assay type: in vivo
# Description: disinfecting seeds of the lettuce with 5% sodium hypochlorite and putting the seeds of the lettuce in another sterilized Petri dish in which a filter paper is disposed; adding 3 mL of 0.03 μM, 3 μM, 30 μM, and 300 μM of IAA aqueous solutions respectively; moving another sterilized Petri dish into another plant growth box for 3 days; and measuring a germination rate and a height of each lettuce and a length of a root of each lettuce.
# [2] = tested on: rice seedlings; assay: IAA sensitivity test on rice seedlings; assay type: in vivo; conditions: 4 days
# Description: Taking rice and lettuce for example, IAA sensitivity of the microbial preparation is tested in steps of: disinfecting and germinating rice seedlings; putting the rice seedlings in a sterilized Petri dish in which a filter paper is disposed; […]; moving the sterilized Petri dish into a plant growth box for 4 days; measuring an average height of buds of the rice seedlings and an average height of roots of the rice seedlings;
smiles,measurement,setting,value
O=C(O)Cc1c[nH]c2ccccc12 [IAA],height of lettuce sprouts,"[1]; IAA 0.03 μM, 3 days (no IAA: 5.3 mm)",3.5 mm
same,length of lettuce roots,"[1]; IAA 0.03 μM, 3 days (no IAA: 14.8 mm)",8.8 mm
same,germination rate of the seeds of the lettuce,"[1]; IAA 300 μM, 3 days (no IAA: 78%)",13%
same,growth of the roots of the rice seedlings,"[2]; IAA 0.03 μM to 30 μM, FIG. 1",does not promote a growth of the roots
same,growth of the roots of the rice seedlings,[2]; IAA 300 μM,limited

# — US20210403858A1, “Bacillus strain and microbial preparation of bacillus and method of using microbial preparation” (ROLLING GREENS CO., LTD., priority 2020, published 2021)
